Consider 13 molecules from ChEMBL document CHEMBL4765472, “Tenofovir-Amino Acid Conjugates Act as Polymerase Substrates-Implications for Avoiding Cellular Phosphorylation in the Discovery of Nucleotide Analogues” (J Med Chem, 2021).

Activity calls are given as the source filed them. The calls are words filed in the database; no cut-off is given here.

For assay [1], the system named is Human immunodeficiency virus 1. The assay can be described thus: Substrate activity at HIV1 reverse transcriptase assessed as incorporation of compound into growing DNA strand at 1 mM incubated for 1 hr using primer and template in presence of MnCl2 by gel based nucleotide incorporation assay.
In assay [2] the test system is Human immunodeficiency virus 1. The assay can be described thus: Inhibition of HIV1 reverse transcriptase assessed as reduction in dsDNA synthesis at 2.5 mM incubated for 1 hr by PicoGreen-based spectrophotometric assay.
The nature of assay [3]: Inhibition of HIV1 reverse transcriptase assessed as reduction in dsDNA synthesis incubated for 1 hr by PicoGreen-based spectrophotometric assay. On the set-up: species or system Human immunodeficiency virus 1.
Assay [4] relates to Human immunodeficiency virus 1. The assay is described as follows: Substrate activity at HIV1 reverse transcriptase assessed as incorporation of compound into growing DNA strand at 500 uM incubated for 1 hr using primer and template in presence of MnCl2 by gel based nucleotide incorporation assay.
For assay [5], the system named is Human immunodeficiency virus 1. The assay can be described thus: Substrate activity at HIV1 reverse transcriptase assessed as incorporation of compound into growing DNA strand at 500 uM incubated for 1 hr using primer and template in presence of MgCl2 by gel based nucleotide incorporation assay.
In assay [6] the test system is Human immunodeficiency virus 1. The assay is described as follows: Substrate activity at HIV1 reverse transcriptase assessed as incorporation of compound into growing DNA strand at 500 to 1000 uM incubated for 1 hr using primer and template in presence of MgCl2 by gel based nucleotide incorporation assay. The note with it: dose 500-1000 µM.
The test system of assay [7] is Human immunodeficiency virus 1. The assay can be described thus: Substrate activity at HIV1 reverse transcriptase assessed as incorporation of compound into growing DNA strand at 500 to 1000 uM incubated for 1 hr using primer and template in presence of MnCl2 by gel based nucleotide incorporation assay. The note with it: dose 500-1000 µM.

In the case of `C[C@H](Cn1cnc2c(N)ncnc21)OCP(=O)(O)N[C@@H](Cc1ccccc1)C(=O)O`, in assay [1], the outcome was Active. The “inhibition (active/not active)” value in assay [2] is “inactive”.

The IC50 is the concentration needed to halve the response being measured. Regarding `CSCC[C@H](NP(=O)(O)CO[C@H](C)Cn1cnc2c(N)ncnc21)C(=O)O`, in assay [3], the IC50 came to 146 µM. The “inhibition (active/not active)” value in assay [2] was “Active”.

With `C[C@H](Cn1cnc2c(N)ncnc21)OCP(=O)(O)N[C@@H](CCC(=O)O)C(=O)O`, the results for the Activity in assay [4] and in assay [5] were 40.8% and 26.8%, respectively. The “inhibition (active/not active)” value in assay [2] is “inactive”.

In the case of `Nc1ncnc2c1ncn2[C@H]1C[C@H](O)[C@@H](COP(=O)(O)O)O1`, in assay [5], the result was Active.

Turning to `C[C@H](Cn1cnc2c(N)ncnc21)OCP(=O)(O)N[C@@H](Cc1c[nH]cn1)C(=O)O`, the outcome in assay [1] was Active. Further, the “inhibition (active/not active)” value in assay [2] is “inactive”.

Take `Nc1ncnc2c1ncn2[C@H]1C[C@H](O)[C@@H](COP(=O)(O)N[C@@H](Cc2ccccc2)C(=O)O)O1`: the result in assay [6] and in assay [7] was inactive. Also, the “inhibition (active/not active)” value in assay [2] was “inactive”.

`C[C@H](Cn1cnc2c(N)ncnc21)OCP(=O)(O)N[C@@H](CC(=O)O)C(=O)O`: the result in assay [1] was Active. Also, the “inhibition (active/not active)” value in assay [2] is “inactive”.

Regarding `C[C@H](Cn1cnc2c(N)ncnc21)OCP(=O)(O)N[C@@H](CCCNC(=N)N)C(=O)O`, the outcome in assay [1] was inactive. In addition, the “inhibition (active/not active)” value in assay [2] is “inactive”.

On to `Nc1ncnc2c1ncn2[C@H]1C[C@H](O)[C@@H](COP(=O)(O)N[C@@H](CC(=O)O)C(=O)O)O1`, for which the outcome in assay [6] and in assay [7] was Active. For the same molecule, the “inhibition (active/not active)” value in assay [2] was “inactive”.

For the molecule `CSCC[C@H](NP(=O)(O)OC[C@H]1O[C@@H](n2cnc3c(N)ncnc32)C[C@@H]1O)C(=O)O`, the result in assay [6] and in assay [7] was inactive. The “inhibition (active/not active)” value in assay [2] is “inactive”.

Take `C[C@H](Cn1cnc2c(N)ncnc21)OCP(=O)(O)O`: the outcome in assay [5] was inactive.

As for `C[C@H](Cn1cnc2c(N)ncnc21)OCP(=O)(O)N[C@H](CC(=O)O)C(=O)O`, in assay [2], the “inhibition (active/not active)” value was “inactive”. Besides, in assay [5], the outcome was Active.

For the molecule `N=C(N)NCCC[C@H](NP(=O)(O)OC[C@H]1O[C@@H](n2cnc3c(N)ncnc32)C[C@@H]1O)C(=O)O`, the result in assay [6] and in assay [7] was inactive. Also, the “inhibition (active/not active)” value in assay [2] was “inactive”.
